These results are taken from ChEMBL document CHEMBL5532658 (Eur J Med Chem, 2024).

Data set [1] can be described thus: Volume of distribution at steady state in CD1 mouse at 1 mg/kg, iv measured upto 24 hrs by LC-MS/MS analysis. Type of data set: ADME, organism-based. To be noted: in vivo, read-out: Vdss.
A short description of data set [2]: AUC(0 to t) in CD1 mouse at 10 mg/kg, po measured upto 24 hrs by LC-MS/MS analysis. Type of data set: ADME, organism-based. The settings on record: in vivo.
The test system of data set [3] is MDA-MB-453. Briefly: Downregulation of Rb protein phosphorylation at Ser807 in human MDA-MB-453 cells incubated for 24 hrs by Western blot analysis. Type of data set: functional, cell-based. The settings on record: dose 37-333 nM.
For data set [4], the system named is MDA-MB-453. Briefly: Downregulation of Rb protein phosphorylation at Ser811 in human MDA-MB-453 cells incubated for 24 hrs by Western blot analysis. The class given is functional, cell-based. The settings on record: dose 37-333 nM.
The nature of data set [5]: Metabolic stability in mouse liver microsomes assessed as half-life. Type of data set: ADME, Microsome. (In general: Liver microsomes are vesicles of endoplasmic reticulum, rich in cytochrome P450 enzymes.)
Data set [6] in a line: Metabolic stability in human liver microsomes assessed as half-life. Type of data set: ADME, Microsome.
The target of data set [7] is Cyclin-dependent kinase 17 (Homo sapiens) (UniProt Q00537). The experiment in a line: Inhibition of CDK17 (unknown origin) at 1 uM by discoverX kinomescan assay.
Cyclin-dependent kinase 17 (Homo sapiens), sequence (Q00537 whole entry, looked up): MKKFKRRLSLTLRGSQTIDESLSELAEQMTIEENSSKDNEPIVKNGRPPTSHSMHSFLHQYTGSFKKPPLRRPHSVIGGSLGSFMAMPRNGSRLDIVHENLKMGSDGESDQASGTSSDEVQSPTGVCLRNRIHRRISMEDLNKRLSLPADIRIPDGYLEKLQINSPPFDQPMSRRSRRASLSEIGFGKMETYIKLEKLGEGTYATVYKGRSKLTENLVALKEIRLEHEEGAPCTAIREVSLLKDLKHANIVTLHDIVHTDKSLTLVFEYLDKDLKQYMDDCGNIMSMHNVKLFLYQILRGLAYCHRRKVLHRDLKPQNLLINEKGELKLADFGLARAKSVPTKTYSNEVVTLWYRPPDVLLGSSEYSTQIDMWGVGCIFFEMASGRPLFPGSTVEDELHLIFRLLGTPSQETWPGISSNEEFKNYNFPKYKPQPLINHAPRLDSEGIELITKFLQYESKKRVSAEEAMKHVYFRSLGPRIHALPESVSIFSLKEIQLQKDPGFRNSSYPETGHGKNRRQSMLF
Data set [8] is described as follows: Clearance in CD1 mouse at 1 mg/kg, iv measured upto 24 hrs by LC-MS/MS analysis. The class given is ADME, organism-based. To be noted: in vivo.
In data set [9] the target is Cyclin-dependent kinase 16 (Homo sapiens) (UniProt Q00536). Briefly: Inhibition of CDK16 (unknown origin) at 1 uM by discoverX kinomescan assay.
Cyclin-dependent kinase 16 (Homo sapiens), sequence (Q00536 whole entry): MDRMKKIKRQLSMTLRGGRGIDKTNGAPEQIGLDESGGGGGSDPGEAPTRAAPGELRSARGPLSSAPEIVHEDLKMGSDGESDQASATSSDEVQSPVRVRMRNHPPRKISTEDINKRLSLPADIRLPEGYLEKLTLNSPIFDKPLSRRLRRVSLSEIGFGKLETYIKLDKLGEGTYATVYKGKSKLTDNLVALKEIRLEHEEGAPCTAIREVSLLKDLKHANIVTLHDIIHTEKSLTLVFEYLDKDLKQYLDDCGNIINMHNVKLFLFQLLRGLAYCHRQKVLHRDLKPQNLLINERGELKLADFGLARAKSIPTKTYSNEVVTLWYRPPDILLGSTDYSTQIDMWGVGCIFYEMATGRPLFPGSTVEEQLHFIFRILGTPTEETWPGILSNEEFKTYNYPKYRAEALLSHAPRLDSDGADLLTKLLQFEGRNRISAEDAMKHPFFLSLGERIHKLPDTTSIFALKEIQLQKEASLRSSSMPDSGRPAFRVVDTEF
The subject of data set [10] is MDA-MB-453. Briefly: Downregulation of Rb protein phosphorylation at Ser608 in human MDA-MB-453 cells incubated for 24 hrs by Western blot analysis. The class given is functional, cell-based. The settings on record: dose 37-333 nM. On the technique in general: In western blotting, separated proteins are transferred to a membrane and probed.
Data set [11] is described as follows: Oral bioavailability in CD1 mouse at 10 mg/kg measured upto 24 hrs by LC-MS/MS analysis. Type of data set: ADME, organism-based. To be noted: in vivo.
Data set [12] deals with MDA-MB-231. The experiment in a line: Downregulation of Rb protein phosphorylation at Ser811 in human MDA-MB-231 cells incubated for 24 hrs by Western blot analysis. Type of data set: functional, cell-based. To be noted: dose 37-333 nM.
The target in data set [13] is Cyclin-dependent kinase 13 (Homo sapiens) (UniProt Q14004). Briefly: Inhibition of CDK13 (unknown origin) at 1 uM by discoverX kinomescan assay.
Cyclin-dependent kinase 13 (Homo sapiens), sequence (Q14004 whole entry, looked up): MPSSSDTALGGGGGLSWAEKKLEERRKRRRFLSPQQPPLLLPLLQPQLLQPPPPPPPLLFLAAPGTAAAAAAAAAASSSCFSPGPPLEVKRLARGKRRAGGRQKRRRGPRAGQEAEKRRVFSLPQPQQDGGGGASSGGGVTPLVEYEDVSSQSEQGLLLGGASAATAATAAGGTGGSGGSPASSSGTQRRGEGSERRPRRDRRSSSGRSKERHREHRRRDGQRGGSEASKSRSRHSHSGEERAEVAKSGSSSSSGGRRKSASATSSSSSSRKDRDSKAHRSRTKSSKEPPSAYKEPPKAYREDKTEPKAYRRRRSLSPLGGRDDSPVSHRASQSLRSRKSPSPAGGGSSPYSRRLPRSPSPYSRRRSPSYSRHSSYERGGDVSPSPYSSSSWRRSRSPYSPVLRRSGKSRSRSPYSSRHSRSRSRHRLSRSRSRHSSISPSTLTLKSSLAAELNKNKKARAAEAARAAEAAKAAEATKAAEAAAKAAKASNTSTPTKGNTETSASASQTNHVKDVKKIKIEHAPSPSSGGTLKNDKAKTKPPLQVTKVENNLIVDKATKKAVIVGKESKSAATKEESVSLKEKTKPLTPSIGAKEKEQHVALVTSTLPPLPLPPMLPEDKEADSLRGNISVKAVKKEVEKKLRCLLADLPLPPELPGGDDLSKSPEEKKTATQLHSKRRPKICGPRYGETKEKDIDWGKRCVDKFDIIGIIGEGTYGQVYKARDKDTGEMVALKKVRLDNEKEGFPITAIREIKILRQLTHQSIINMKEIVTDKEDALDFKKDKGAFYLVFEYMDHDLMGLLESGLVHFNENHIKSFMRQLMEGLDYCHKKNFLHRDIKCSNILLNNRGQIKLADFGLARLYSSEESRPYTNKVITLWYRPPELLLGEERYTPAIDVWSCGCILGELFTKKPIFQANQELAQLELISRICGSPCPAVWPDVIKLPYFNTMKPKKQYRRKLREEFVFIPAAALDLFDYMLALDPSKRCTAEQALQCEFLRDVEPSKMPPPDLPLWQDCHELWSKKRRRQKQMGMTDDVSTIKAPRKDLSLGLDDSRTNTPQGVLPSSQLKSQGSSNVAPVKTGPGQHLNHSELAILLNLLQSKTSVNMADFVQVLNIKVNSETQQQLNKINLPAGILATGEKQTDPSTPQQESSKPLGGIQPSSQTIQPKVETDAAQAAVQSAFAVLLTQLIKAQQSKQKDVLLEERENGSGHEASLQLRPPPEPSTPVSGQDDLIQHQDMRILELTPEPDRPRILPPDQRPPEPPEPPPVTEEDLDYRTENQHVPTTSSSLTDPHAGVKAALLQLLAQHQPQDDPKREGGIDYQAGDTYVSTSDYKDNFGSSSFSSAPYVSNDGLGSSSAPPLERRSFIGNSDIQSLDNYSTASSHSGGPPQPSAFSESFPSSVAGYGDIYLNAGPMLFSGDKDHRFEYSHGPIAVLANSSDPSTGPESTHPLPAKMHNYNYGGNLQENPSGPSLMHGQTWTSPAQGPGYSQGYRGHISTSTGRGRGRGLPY
Data set [14] addresses Cyclin-dependent kinase 7 (Homo sapiens) (UniProt P50613). Briefly: Inhibition of CDK7 in human MDA-MB-453 cells assessed as decrease in Thr160 phosphorylation of CDK2 at 37 to 333 nM incubated for 24 hrs by Western blot substrate. Type of data set: cell-based. To be noted: dose 37-333 nM.
The subject of data set [15] is MDA-MB-453. Briefly: Downregulation of Rb protein phosphorylation at Ser780 in human MDA-MB-453 cells incubated for 24 hrs by Western blot analysis. Type of data set: functional, cell-based. The settings on record: dose 37-333 nM.
Data set [16] relates to MDA-MB-453. The experiment in a line: Induction of cell cycle arrest in human MDA-MB-453 cells assessed as G0/G1 phase arrest at 12.3 to 1000 nM incubated for 24 hrs by PI staining based flow cytometry analysis. The class given is functional. The settings on record: dose 12.3-1000 nM. Background: In flow cytometry, cells or beads pass a laser one at a time.
Another data set addresses CDK7/Cyclin H/MNAT1 (Homo sapiens, UniProt P50613). The experiment in a line: Inhibition of human His-tagged CDK7/cyclin H/MNAT1 expressed in baculovirus infected insect cells preincubated for 10 mins followed by substrate and ATP addition and measured after 60 mins by ADP-Glo kinase assay. Also on record: species or system Insect cell.
The target of data set [17] is T1, Cyclin-dependent kinase-like 5 (Homo sapiens) (UniProt O76039).
T1 sequence (whole entry): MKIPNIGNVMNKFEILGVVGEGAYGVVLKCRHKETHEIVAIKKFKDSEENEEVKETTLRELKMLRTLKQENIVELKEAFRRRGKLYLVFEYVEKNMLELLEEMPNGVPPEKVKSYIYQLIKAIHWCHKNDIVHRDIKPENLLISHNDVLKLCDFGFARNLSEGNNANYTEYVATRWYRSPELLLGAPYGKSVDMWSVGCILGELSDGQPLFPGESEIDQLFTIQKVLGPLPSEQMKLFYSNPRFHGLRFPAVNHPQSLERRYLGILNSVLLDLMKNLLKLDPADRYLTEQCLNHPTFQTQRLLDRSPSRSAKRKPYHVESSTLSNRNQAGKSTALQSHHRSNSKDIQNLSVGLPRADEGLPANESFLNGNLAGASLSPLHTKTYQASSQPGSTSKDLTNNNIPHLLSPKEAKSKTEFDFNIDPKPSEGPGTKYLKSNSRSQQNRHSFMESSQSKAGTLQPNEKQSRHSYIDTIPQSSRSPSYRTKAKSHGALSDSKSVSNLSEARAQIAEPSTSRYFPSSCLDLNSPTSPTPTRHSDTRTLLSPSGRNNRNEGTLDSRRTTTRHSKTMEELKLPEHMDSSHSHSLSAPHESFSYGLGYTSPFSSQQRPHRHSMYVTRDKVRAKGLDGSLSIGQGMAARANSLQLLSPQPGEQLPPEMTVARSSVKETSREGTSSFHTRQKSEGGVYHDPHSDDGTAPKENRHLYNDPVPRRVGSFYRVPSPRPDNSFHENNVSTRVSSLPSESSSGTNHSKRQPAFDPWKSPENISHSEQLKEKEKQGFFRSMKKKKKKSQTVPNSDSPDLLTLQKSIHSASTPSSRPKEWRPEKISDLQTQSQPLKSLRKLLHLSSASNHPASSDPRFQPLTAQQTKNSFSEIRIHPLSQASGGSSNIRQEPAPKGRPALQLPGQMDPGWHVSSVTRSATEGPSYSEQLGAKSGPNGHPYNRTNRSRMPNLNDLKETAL
Briefly: Inhibition of CDKL5 (unknown origin) at 1 uM by discoverX kinomescan assay.

Data set [18] relates to MDA-MB-231. Briefly: Downregulation of Rb protein phosphorylation at Ser780 in human MDA-MB-231 cells incubated for 24 hrs by Western blot analysis. Type of data set: functional, cell-based. The settings on record: dose 37-333 nM.
The test system of data set [19] is MDA-MB-231. Briefly: Downregulation of Rb protein phosphorylation at Thr821 in human MDA-MB-231 cells incubated for 24 hrs by Western blot analysis. Type of data set: functional, cell-based. The settings on record: dose 37-333 nM.
For data set [20], the system named is MDA-MB-231. Briefly: Antitumor activity against human MDA-MB-231 cells xenografted in Balb/c mouse assessed as tumor regression at 5 to 10 mg/kg, po administered once daily and measured at day 15. The class given is functional, organism-based. To be noted: dose 5-10 mg/kg.
Data set [21] is described as follows: Half life in CD1 mouse at 10 mg/kg, po measured upto 24 hrs by LC-MS/MS analysis. The settings on record: in vivo. The class given is ADME, organism-based.
The target of data set [22] is T2, Dual specificity mitogen-activated protein kinase kinase 5 (Homo sapiens) (UniProt Q13163).
T2 sequence (whole entry): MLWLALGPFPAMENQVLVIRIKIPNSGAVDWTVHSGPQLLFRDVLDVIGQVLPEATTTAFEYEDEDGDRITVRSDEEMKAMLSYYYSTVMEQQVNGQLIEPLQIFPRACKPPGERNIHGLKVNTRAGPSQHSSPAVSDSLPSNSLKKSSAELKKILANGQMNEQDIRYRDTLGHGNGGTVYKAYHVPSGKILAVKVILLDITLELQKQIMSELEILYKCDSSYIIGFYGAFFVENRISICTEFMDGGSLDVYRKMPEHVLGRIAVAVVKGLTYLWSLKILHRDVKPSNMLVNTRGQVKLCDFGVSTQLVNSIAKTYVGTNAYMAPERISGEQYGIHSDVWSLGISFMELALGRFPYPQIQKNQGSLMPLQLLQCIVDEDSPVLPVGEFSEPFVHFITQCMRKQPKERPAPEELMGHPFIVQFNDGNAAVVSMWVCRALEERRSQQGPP
Briefly: Inhibition of MAP2K5 (unknown origin) assessed as remaining activity at 1 uM by discoverX kinomescan assay relative to control.

Structures are written as SMILES. Calls of active or inactive are those of the source. The calls are words filed in the database; no cut-off is given here. A value given as a limit tells only on which side of the number the result lay.

CDK7/Cyclin H/MNAT1, sequence (P51946 whole entry): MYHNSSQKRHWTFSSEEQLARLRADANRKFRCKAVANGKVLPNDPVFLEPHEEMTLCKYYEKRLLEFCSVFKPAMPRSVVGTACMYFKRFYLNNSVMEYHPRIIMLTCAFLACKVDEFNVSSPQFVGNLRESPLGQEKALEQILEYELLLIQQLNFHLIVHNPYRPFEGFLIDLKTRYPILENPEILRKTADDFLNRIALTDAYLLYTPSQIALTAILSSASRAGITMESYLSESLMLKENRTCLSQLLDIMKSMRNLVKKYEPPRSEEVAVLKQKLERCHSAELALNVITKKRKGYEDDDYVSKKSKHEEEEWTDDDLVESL
CDK7/Cyclin H/MNAT1, sequence (P50613 whole entry): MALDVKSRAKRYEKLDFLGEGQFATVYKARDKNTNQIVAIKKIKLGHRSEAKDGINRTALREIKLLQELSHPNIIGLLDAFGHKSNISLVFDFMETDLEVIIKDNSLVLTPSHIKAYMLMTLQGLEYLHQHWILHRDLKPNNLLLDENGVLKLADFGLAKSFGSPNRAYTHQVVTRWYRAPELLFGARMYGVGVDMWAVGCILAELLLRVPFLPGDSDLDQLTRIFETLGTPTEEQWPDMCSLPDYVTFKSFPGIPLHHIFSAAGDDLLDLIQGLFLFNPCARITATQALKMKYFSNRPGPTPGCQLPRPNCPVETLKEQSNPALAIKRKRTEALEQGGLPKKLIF
CDK7/Cyclin H/MNAT1, sequence (P51948 whole entry, further chain): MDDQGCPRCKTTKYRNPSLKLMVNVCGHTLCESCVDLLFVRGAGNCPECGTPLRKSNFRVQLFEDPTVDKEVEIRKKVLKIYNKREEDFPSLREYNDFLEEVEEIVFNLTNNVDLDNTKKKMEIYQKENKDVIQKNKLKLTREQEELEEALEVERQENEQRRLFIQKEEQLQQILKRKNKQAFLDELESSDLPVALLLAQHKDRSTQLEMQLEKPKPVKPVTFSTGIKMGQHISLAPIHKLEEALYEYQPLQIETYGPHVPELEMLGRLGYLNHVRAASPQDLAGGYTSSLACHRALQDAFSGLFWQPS
Cyclin-dependent kinase 7 (Homo sapiens), sequence (P50613 whole entry): as the sequence (P50613 whole entry) above

As usually defined, the AUC(0-t) is exposure summed from dosing to a finite time, without extrapolation to infinity. Read a high AUC(0-t) as more exposure. One may read the half-life as how long it takes for the measured level to halve. One may read the clearance as a measure of how efficiently the substance is removed, as volume per time. Read a high clearance as efficient removal. Broadly, the bioavailability is the share of a dose that reaches the circulation, judged against a reference dose that is usually intravenous. One may read the IC50 as the concentration that inhibits the measured activity by half. A higher IC50 goes with lower potency. As for `CP(C)(=O)c1c(C#N)ccc2c(-c3nc(N[C@@H]4CNC[C@@H](F)C4)nc4ccsc34)c[nH]c12`, the Vd in data set [1] is 4.6 L/kg. This molecule also had an AUC(0-t) at 24 h in data set [2] of 513 ng·h/mL. The Activity entry in the data set with MDA-MB-453 [3], in the data set on MDA-MB-453 [4], in the data set with MDA-MB-453 [10], with MDA-MB-231 [12], with MDA-MB-453 [15] and with MDA-MB-231 [18] was “Dose-Dependent Effect” throughout. Further, the Activity result in the data set with MDA-MB-231 [19] was “Dose-Dependent Effect”; in data set [22], < 1%. For the same molecule, the half-life in data set [5] was 0.85 h; in [6], 1.2 h; in [21] it was 2.11 h. In addition, the inhibition entry in data set [7], in data set [9], in data set [13] and in [17] was “inactive” each time. The clearance in data set [8] was 68.3 mL/min/kg. Moreover, the bioavailability in data set [11] is 22.3%. For the same molecule, the inhibition result in [14] was “Active”. Further, the result with MDA-MB-453 [16] and in the data set on MDA-MB-231 [20] was Active. Moreover, the IC50 against CDK7/Cyclin H/MNAT1 turned out to be 6.5 nM.
